Test results from ChEMBL document CHEMBL1201862, “PubChem BioAssay data set” (2004).
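Tested at 5 concentrations; 48 h exposure; 96-well plates; endpoints linearly interpolated, else capped at highest concentration. GI50 = concentration required for 50% inhibition of growth.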 The source made the active and inactive calls. Rule as the data show it: active = GI50 up to about 1.1 µM and inactive = higher.

How the values were obtained:
Assay in all cases: NCI-60 cell line screen, 48 h
786-0 = test system: 786-0
A498 = test system: A498
A549 = test system: A549
ACHN = test system: ACHN
BT-549 = test system: BT-549
CAKI-1 = test system: CAKI-1
CCRF-CEM = test system: CCRF-CEM
COLO 205 = test system: COLO 205
DU-145 = test system: DU-145
EKVX = test system: EKVX
HCC 2998 = test system: HCC 2998
HCT-116 = test system: HCT-116
HCT-15 = test system: HCT-15
HL-60 = test system: HL-60
HOP-92 = test system: HOP-92
Hs-578T = test system: Hs-578T
IGROV-1 = test system: IGROV-1
K562 = test system: K562
KM12 = test system: KM12
LOX IMVI = test system: LOX IMVI
M14 = test system: M14
MCF7 = test system: MCF7
MDA-MB-231 = test system: MDA-MB-231
MDA-MB-435 = test system: MDA-MB-435
MDA-N = test system: MDA-N
MOLT-4 = test system: MOLT-4
Malme-3M = test system: Malme-3M
NCI-H226 = test system: NCI-H226
NCI-H460 = test system: NCI-H460
NCI-H522 = test system: NCI-H522
NCI/ADR-RES = test system: NCI/ADR-RES
OVCAR-3 = test system: OVCAR-3
OVCAR-4 = test system: OVCAR-4
OVCAR-5 = test system: OVCAR-5
OVCAR-8 = test system: OVCAR-8
PC-3 = test system: PC-3
RPMI-8226 = test system: RPMI-8226
RXF 393 = test system: RXF 393
SF-268 = test system: SF-268
SF-295 = test system: SF-295
SF-539 = test system: SF-539
SK-MEL-28 = test system: SK-MEL-28
SK-MEL-2 = test system: SK-MEL-2
SK-MEL-5 = test system: SK-MEL-5
SN12C = test system: SN12C
SNB-19 = test system: SNB-19
SNB-75 = test system: SNB-75
SR = test system: SR
SW-620 = test system: SW-620
T47D = test system: T47D
TK-10 = test system: TK-10
U-251 = test system: U-251
UACC-257 = test system: UACC-257
UACC-62 = test system: UACC-62
UO-31 = test system: UO-31
HOP-62 = test system: HOP-62
HT-29 = test system: HT-29
NCI-H23 = test system: NCI-H23

CC(NNC(=O)c1cc[n+]([BH2-]C#N)cc1)c1ccccc1F (stereo unspecified)
GI50 (786-0): > 100 µM (inactive) | GI50 (A498): 3.4 µM (inactive) | GI50 (A549): > 100 µM (inactive) | GI50 (ACHN): > 100 µM (inactive) | GI50 (BT-549): > 100 µM (inactive) | GI50 (CAKI-1): > 100 µM (inactive) | GI50 (CCRF-CEM): > 100 µM (inactive) | GI50 (COLO 205): > 100 µM (inactive) | GI50 (DU-145): > 100 µM (inactive) | GI50 (EKVX): > 100 µM (inactive) | GI50 (HCC 2998): > 100 µM (inactive) | GI50 (HCT-116): > 100 µM (inactive) | GI50 (HCT-15): > 100 µM | GI50 (HL-60): > 100 µM (inactive) | GI50 (HOP-92): > 100 µM (inactive) | GI50 (Hs-578T): > 100 µM (inactive) | GI50 (IGROV-1): > 100 µM (inactive) | GI50 (K562): > 100 µM (inactive) | GI50 (KM12): > 100 µM (inactive) | GI50 (LOX IMVI): > 100 µM (inactive) | GI50 (M14): > 100 µM (inactive) | GI50 (MCF7): > 100 µM (inactive) | GI50 (MDA-MB-231): > 100 µM (inactive) | GI50 (MDA-MB-435): > 100 µM (inactive) | GI50 (MDA-N): > 100 µM (inactive) | GI50 (MOLT-4): > 100 µM (inactive) | GI50 (Malme-3M): > 100 µM (inactive) | GI50 (NCI-H226): > 100 µM (inactive) | GI50 (NCI-H460): > 100 µM (inactive) | GI50 (NCI-H522): > 100 µM (inactive) | GI50 (NCI/ADR-RES): > 100 µM (inactive) | GI50 (OVCAR-3): > 100 µM (inactive) | GI50 (OVCAR-4): > 100 µM (inactive) | GI50 (OVCAR-5): > 100 µM (inactive) | GI50 (OVCAR-8): > 100 µM (inactive) | GI50 (PC-3): > 100 µM (inactive) | GI50 (RPMI-8226): > 100 µM (inactive) | GI50 (RXF 393): > 100 µM (inactive) | GI50 (SF-268): > 100 µM (inactive) | GI50 (SF-295): > 100 µM (inactive) | GI50 (SF-539): > 100 µM (inactive) | GI50 (SK-MEL-28): > 100 µM (inactive) | GI50 (SK-MEL-2): > 100 µM (inactive) | GI50 (SK-MEL-5): > 100 µM (inactive) | GI50 (SN12C): > 100 µM (inactive) | GI50 (SNB-19): > 100 µM (inactive) | GI50 (SNB-75): > 100 µM (inactive) | GI50 (SR): > 100 µM (inactive) | GI50 (SW-620): > 100 µM (inactive) | GI50 (T47D): > 100 µM (inactive) | GI50 (TK-10): > 100 µM (inactive) | GI50 (U-251): > 100 µM (inactive) | GI50 (UACC-257): > 100 µM (inactive) | GI50 (UACC-62): > 100 µM (inactive) | GI50 (UO-31): > 100 µM (inactive)

CN(C)Cc1cc(C(=O)/C=C/c2ccc(O)cc2)cc(CN(C)C)c1O
GI50 (786-0): 34.4 µM (inactive) | GI50 (A498): 31.8 µM (inactive) | GI50 (A549): > 100 µM (inactive) | GI50 (ACHN): 20.9 µM (inactive) | GI50 (BT-549): 79.4 µM (inactive) | GI50 (CAKI-1): 28.8 µM (inactive) | GI50 (CCRF-CEM): 24.8 µM (inactive) | GI50 (COLO 205): 19.4 µM (inactive) | GI50 (DU-145): 53.6 µM (inactive) | GI50 (EKVX): 70 µM (inactive) | GI50 (HCC 2998): 79.4 µM (inactive) | GI50 (HCT-116): 38.2 µM (inactive) | GI50 (HCT-15): 44.5 µM | GI50 (HL-60): 19.1 µM (inactive) | GI50 (HOP-62): 38 µM (inactive) | GI50 (HOP-92): 30.2 µM (inactive) | GI50 (HT-29): 79.3 µM (inactive) | GI50 (Hs-578T): 60.5 µM (inactive) | GI50 (IGROV-1): 45.4 µM (inactive) | GI50 (K562): 29.5 µM (inactive) | GI50 (KM12): 24.4 µM (inactive) | GI50 (LOX IMVI): 29.7 µM (inactive) | GI50 (M14): 27.6 µM (inactive) | GI50 (MCF7): 43.2 µM (inactive) | GI50 (MDA-MB-231): 25.2 µM (inactive) | GI50 (MDA-MB-435): 35.4 µM (inactive) | GI50 (MDA-N): 37.7 µM (inactive) | GI50 (MOLT-4): 26.7 µM (inactive) | GI50 (NCI-H226): > 100 µM (inactive) | GI50 (NCI-H23): 79.6 µM (inactive) | GI50 (NCI-H460): 23.7 µM (inactive) | GI50 (NCI-H522): 23.4 µM (inactive) | GI50 (NCI/ADR-RES): > 100 µM (inactive) | GI50 (OVCAR-3): 18.9 µM (inactive) | GI50 (OVCAR-5): 42.1 µM (inactive) | GI50 (OVCAR-8): 81.7 µM (inactive) | GI50 (PC-3): 47.4 µM (inactive) | GI50 (RPMI-8226): 17.9 µM (inactive) | GI50 (RXF 393): 59.8 µM (inactive) | GI50 (SF-268): 72.4 µM (inactive) | GI50 (SF-295): 86.3 µM (inactive) | GI50 (SF-539): 55 µM (inactive) | GI50 (SK-MEL-28): 25.9 µM (inactive) | GI50 (SK-MEL-2): 30.3 µM (inactive) | GI50 (SK-MEL-5): 18.5 µM (inactive) | GI50 (SN12C): 23 µM (inactive) | GI50 (SNB-19): > 100 µM (inactive) | GI50 (SNB-75): 26.7 µM (inactive) | GI50 (SR): 23.1 µM (inactive) | GI50 (SW-620): 39.4 µM (inactive) | GI50 (T47D): 49.9 µM (inactive) | GI50 (TK-10): 53.7 µM (inactive) | GI50 (U-251): 16 µM (inactive) | GI50 (UACC-257): 46.2 µM (inactive) | GI50 (UACC-62): 36.6 µM (inactive) | GI50 (UO-31): 63 µM (inactive)
